The experiment concerns CEM cells HIV-1 protection, formazan growth assay. Kind of experiment: NCI AIDS Antiviral Assay. To be noted: for IC50: measured here: growth of uninfected CEM cells. Put shortly: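 CEM (human) cells, HIV-1 infected vs uninfected, 5-point dosing, formazan growth read-out. Retest threshold 50% protection.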

Active and inactive are the calls of the source.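 Rule for the calls: active = compounds giving half or more protection of infected cells from virus-caused growth loss, again on retest; inactive = the rest.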

For orientation: EC50 means the concentration needed to bring the measured effect to its halfway point. In general, IC50 refers to the point on the concentration scale where inhibition reaches its midpoint. Low values mean inhibition by little substance, high ones a need for much substance. With `N#CC(C#N)=C(C#N)C#N`, the EC50 was above 200 µM and the half-inhibitory concentration (IC50) was above 200 µM. Take `O=C1c2ccccc2-c2nc3ncccc3cc21`: the EC50 was above 200 µM and the IC50 was determined as 33.9 µM. In the case of `c1ccc2c(c1)SC1=C(SC(=C3SC4=C(S3)Sc3ccccc3S4)S1)S2`, the EC50 was above 100 µM and the half-maximal inhibitory concentration (IC50) is above 100 µM.

For the compound `O=C(CCc1nc(=S)[nH][nH]1)Nc1cccc(C(F)(F)F)c1`, the EC50 was above 22.9 µM and the IC50 was above 22.9 µM. On to `O=[N+]([O-])c1c(/C=N/Nc2ccccc2)oc(-c2ccc3c(c2)OCO3)c1-c1ccc2c(c1)OCO2`, for which the EC50 is above 21.4 µM and the IC50 is 3.98 µM. On to `O=C(CNc1ccc(Cl)cc1Cl)Nn1c(-c2ccccc2)nc2ccccc2c1=O`, for which the EC50 was above 200 µM and the half-maximal inhibitory concentration (IC50) turned out to be 10.5 µM. As to `N/C(=N\N=C\c1c[nH]c2cc(C(F)(F)F)ccc2c1=O)NO`, the EC50 was above 200 µM and the IC50 amounted to 89.1 µM. For `CCOC(=O)C(Cc1ccccc1)NC(=O)c1[nH]cnc1/N=N/N(C)C` (stereo not drawn), the EC50 was above 692 µM and the IC50 was 355 µM.

On to `COc1ccc(NC(=O)CC/C(CC(=O)C(C)(C)C)=N\NC(=O)C(=O)NN)cc1`, for which the result was inactive. As to `COC(=O)c1cc(/C=C/C(=O)Cc2ccccc2)cn1S(=O)(=O)c1ccccc1`, the EC50 is above 200 µM and the IC50 was above 200 µM. As to `N#C/C(=C\c1ccc(Br)cc1)C(=O)c1ccccc1`, the EC50 was above 95.5 µM and the IC50 was 67.6 µM. Taken in the same sequence, the figures for `Nc1ncnc2c1ncn2C(=O)NC12CC3CC(CC(C3)C1)C2` were above 100 µM and above 100 µM. `CC(=O)N(C)c1ccc(/C=C2\C=Cc3ccccc32)cc1`: the EC50 is above 49 µM and the 50% inhibitory concentration (IC50) was 12.3 µM. With `COc1cc(/C=C(\NC(=O)c2ccccc2)c2nc3ncncc3[nH]2)cc(OC)c1OC`, the result was inactive. As to `CN(CC(O)C(O)C(O)C(O)CO)CN1C(=O)C(=O)c2ccccc21` (stereo not drawn), the EC50 was above 200 µM and the IC50 turned out to be 34.7 µM.

As to `CN(C)Cc1ccccc1CCO`, the EC50 is above 200 µM and the IC50 is above 200 µM.

In the case of `O=C(/C=C/c1c(O)ccc2ccccc12)c1cccc(O)c1`, the EC50 was above 617 µM and the IC50 came to 91.2 µM.

As for `COC(=O)CCCCC=C(c1cc(Cl)c(OC)c(C(=O)OC)c1)c1cc(Cl)c(OC)c(C(=O)OC)c1`, the EC50 was 6.76 µM and the IC50 was 60.3 µM.

As to `CC1(O)C(O)C(O)C1(O)CO` (stereo not drawn) (tested in a mixture with another compound), the EC50 was above 200 µM and the IC50 was above 200 µM. Consider `O=c1[nH]nc(Cc2ccccc2)n1/N=C/c1cccnc1`, for which the EC50 is 56.2 µM and the IC50 is above 200 µM. As for `COC1CC(N)C(O)C(CN=[N+]=[N-])O1` (stereo not drawn), the result was inactive. Regarding `NCCCCC(=O)NC(CCCCNC(=O)OCc1ccccc1)C(=O)NCCCCC(=O)NC(CCCCNC(=O)OCc1ccccc1)C(=O)NCCCCC(=O)NC(CCCCNC(=O)OCc1ccccc1)C(=O)NCCCCC(=O)NC(CCCCNC(=O)OCc1ccccc1)C(=O)NCCCCC(=O)NC(CCCCNC(=O)OCc1ccccc1)C(=O)O` (stereo not drawn), the EC50 is above 14.1 µM and the IC50 came out at 13.8 µM.

With `Cc1ccc(NC2=NCCO2)c2c1CCC2`, the EC50 is above 200 µM and the IC50 stood at 33.9 µM. As for `Oc1ccc(O)c([P+](c2ccccc2)(c2ccccc2)c2ccccc2)c1`, the EC50 was above 200 µM and the IC50 came out at 30.2 µM. On to `CC(C)(CCCCC(C)(C)C1NC(=O)N1)C1NC(=O)N1`, for which the EC50 is above 200 µM and the IC50 was above 200 µM. Consider `CCN(CC)CCN1CCN=c2c3cc(OC)ccc3n3cnc4ccc1c2c43`, for which the EC50 is above 2 µM and the IC50 turned out to be 0.0347 µM.

`CCOP(=O)(O)C(Nc1ccc(N=Nc2ccccc2)cc1)c1ccc(C(Nc2ccc(N=Nc3ccccc3)cc2)P(=O)(O)OCC)cc1` (stereo not drawn): the EC50 is above 81.3 µM and the IC50 was determined as 30.2 µM. The corresponding values for `COc1ccc2c(-c3ccc(OCCN(C)C)cc3)c(Oc3ccccc3)c(=O)oc2c1` are above 200 µM and 7.08 µM. Consider `C[C@]12CC[C@H](OC(=O)CCC(=O)O)CC1=CC[C@@H]1C2CC[C@@]2(C)C1CC[C@@H]2c1nc(-c2ccccc2)cs1` (stereo partly drawn), for which the EC50 is above 46.8 µM and the IC50 amounted to 17.4 µM.

As for `Cc1ccc(S(=O)(=O)N2CCN(CCN(C)CCN3CCN(S(=O)(=O)c4ccc(C)cc4)CC3)CC2)cc1`, the EC50 is above 100 µM and the IC50 is 46.8 µM. Turning to `CC(C)(C)C(=O)Nc1ccccc1C(=O)C12CCC3(CCOCc4ccccc4)C=CCN(C(=O)O1)C32` (stereo not drawn), the EC50 is 15.5 µM and the IC50 was 42.7 µM.

Take `CCCCCCCCCCCOC(=S)NC(C)C`: the outcome was inactive.

Turning to `CCC(=O)NC1Cc2cc(C)cc(C)c21` (stereo not drawn), the EC50 was above 89.1 µM and the IC50 was above 89.1 µM.

Consider `COc1cc(O)c2c(=O)c3c(OC)c(O)ccc3oc2c1`, for which the EC50 is above 200 µM and the IC50 was determined as 56.2 µM. With `O=c1[nH]c(=O)n(C2C=CC(CO)O2)cc1COCC(F)(F)F` (stereo not drawn), the EC50 was 3.02 µM and the IC50 is 105 µM. Turning to `NC(=O)CCC(NC(=O)c1ccccc1SC(=O)CCCC[n+]1ccccc1)C(N)=O` (stereo not drawn), the EC50 was 20.4 µM and the concentration for half-maximal inhibition (IC50) is above 200 µM. With `CC(O)C1(CNc2cc(Cl)nc(N)n2)CCCCC1` (stereo not drawn), the EC50 is above 200 µM and the IC50 came to 85.1 µM. For `CN(C)Cc1cc(C(=O)/C=C/c2ccc(Cl)cc2)cc(CN(C)C)c1O`, the EC50 is above 200 µM and the IC50 came to 9.12 µM. With `COc1cc2c(cc1O)C(CSC)Cc1cc(OC)c(OC)cc1N(C)CCC2` (stereo not drawn), the EC50 was above 200 µM and the IC50 is 38.9 µM.

As for `Cn1c(=O)nc2n(-c3cccc(Br)c3)c3ccccc3nc-2c1=O`, the outcome was inactive. Turning to `CN(C)CCNCCCNc1c2ccccc2nc2cccc([N+](=O)[O-])c12`, the EC50 is above 2 µM and the IC50 came to 0.0129 µM. Consider `COc1ccc2c(c1)CCC1=C2C=C[P+]1(C)C`, for which the result was inactive. Regarding `CC(=O)/C(=C/N1CC(=O)NC1=S)C(=O)Nc1ccccc1`, the EC50 is above 200 µM and the IC50 was above 200 µM. For `CC(=N/NC(=S)N(C)C)/C(=N\NC(=S)N(C)C)c1ccccc1`, the EC50 was above 200 µM and the IC50 was determined as 3.63 µM. Turning to `Nc1ccc(N=Nc2ccc(-c3ccc(N=Nc4ccc(N)c5cc(S(=O)(=O)O)ccc45)cc3)cc2)c2ccc(S(=O)(=O)O)cc12`, the outcome was active.

On to `O=C1c2ccccc2-c2nc3ccccc3nc21`, for which the EC50 is above 6.17 µM and the 50% inhibitory concentration (IC50) was above 6.17 µM. In the case of `Oc1ccc(/C=C/c2cc(O)cc3c2C(c2cc(O)cc4c2C(c2cc(O)cc(O)c2)C(c2ccc(O)cc2)O4)C(c2ccc(O)cc2)O3)cc1` (stereo not drawn), the EC50 was above 20.9 µM and the half-inhibitory concentration (IC50) is 10.5 µM.

Consider `CCOC(=O)/C(CCCC#N)=N/O`, for which the EC50 is above 200 µM and the IC50 was above 200 µM. For `Cc1ccc(/C(O)=C/c2nc3ccccc3s/c2=N/CS(=O)(=O)c2ccc(C)cc2)cc1`, the EC50 was above 200 µM and the IC50 is above 200 µM.

Take `COC(=O)/C1=C/C2CC(/C=C(/c3ccccc3)C(=O)O1)C2`: the outcome was inactive. Regarding `C=C1CN(S(=O)(=O)c2ccc(C)cc2)CCCN(Cc2ccc[nH]2)CCCN(S(=O)(=O)c2ccc(C)cc2)C1`, the EC50 was above 200 µM and the IC50 is 14.5 µM. Consider `O=C(O/N=C1/CCC/C1=C\c1ccccc1)c1ccc([N+](=O)[O-])cc1`, for which the outcome was inactive.

`CCCCCCCCCCCCCCCCOC1OC(COC(C)=O)C(OC(C)=O)C(OC(C)=O)C1O` (stereo not drawn): the EC50 is above 13.5 µM and the IC50 was above 13.5 µM.

For `COc1ccc2c(c1)OCC1Cc3cc4c(cc3OC21)OCO4` (stereo not drawn), the outcome was inactive. `O=C1CCOc2cc(ccc2O)CCN1`: the EC50 is above 200 µM and the IC50 is above 200 µM. As for `CO/C(=N\N=C\c1cccc(Cl)c1)c1ccncc1`, the EC50 was above 132 µM and the 50% inhibitory concentration (IC50) worked out at 83.2 µM. As to `COc1c(O)cc2c(c1O)C(=O)C1=C(CCCC1)C2=O`, the EC50 is above 97.7 µM and the IC50 is 12.3 µM. The corresponding values for `CC(NC(=O)C(NC(=O)C(NC(=O)C(F)(F)F)C(C)C)C(C)C)C(=O)Oc1c(Cl)c(Cl)c(Cl)c(Cl)c1Cl` (stereo not drawn) are above 200 µM and 141 µM. `CCOC(=O)C(=O)NCCCN1CCOCC1`: the EC50 was above 1020 µM and the 50% inhibitory concentration (IC50) is above 1020 µM. As to `CC(=O)Nn1c(Cc2ccc(Cl)cc2)nn(C)c1=O`, the result was inactive.

Regarding `CC1(C)/C=C/CC2(C)Oc3ccccc3C[C@@H]2CCC2(C)Oc3ccccc3C[C@@H]2C1` (stereo partly drawn), the EC50 was above 12 µM and the IC50 was above 12 µM.

`COc1cc2c(cc1O)C(=O)OC1CC=C3CC[N@@+](C)([O-])[C@H]3C21` (stereo partly drawn): the EC50 is above 195 µM and the half-inhibitory concentration (IC50) is above 195 µM.

On to `CC(C)(C)c1ccc(O)c(C(O)c2ccccn2)c1` (stereo not drawn), for which the EC50 was above 200 µM and the IC50 amounted to 81.3 µM.

In the case of `O=C(/C=C/c1ccc([N+](=O)[O-])cc1)c1ccc(NCc2nc3ccccc3[nH]2)cc1`, the EC50 was above 13.2 µM and the IC50 is above 13.2 µM. As for `NNC(=O)C(=O)N/N=C1\CCC(=O)CC1C(=O)CCC(=O)Nc1ccc(Cl)cc1` (stereo not drawn), the EC50 was above 32.4 µM and the IC50 is above 32.4 µM. `CC1=C(C(=O)Nc2ccccc2)C(c2cccc3ccccc23)C(C(=O)Nc2ccccc2)=C(C)N1`: the outcome was inactive.

Regarding `CC(C)(CCCCC(C)(C)NC1=NCCO1)NC1=NCCO1`, the EC50 was above 200 µM and the IC50 turned out to be 77.6 µM. The corresponding values for `COC(=O)C(Cc1ccccc1)N=Cc1c(O)c(O)c(C(C)C)c2cc(C)c(-c3c(C)cc4c(C(C)C)c(O)c(O)c(C=NC(Cc5ccccc5)C(=O)OC)c4c3O)c(O)c12` (stereo not drawn) are above 11.7 µM and above 11.7 µM. In the case of `N/N=C1/C(=N/O)CCc2nonc21`, the EC50 was above 200 µM and the half-maximal inhibitory concentration (IC50) was above 200 µM. As for `O=c1nc2ccc3[nH]c(O)c4ccc1c2c34`, the EC50 was above 200 µM and the IC50 came to 178 µM.
